Eleven compounds from US4532255A, “Amidine compounds and anticomplement agent comprising same” (Torii & Co., Ltd., priority 1980, dated 1985) can be followed below.

For one assay, the target named is T1, C1s (Homo sapiens, UniProt P09871).
T1 sequence (P09871 438-688 limits assumed): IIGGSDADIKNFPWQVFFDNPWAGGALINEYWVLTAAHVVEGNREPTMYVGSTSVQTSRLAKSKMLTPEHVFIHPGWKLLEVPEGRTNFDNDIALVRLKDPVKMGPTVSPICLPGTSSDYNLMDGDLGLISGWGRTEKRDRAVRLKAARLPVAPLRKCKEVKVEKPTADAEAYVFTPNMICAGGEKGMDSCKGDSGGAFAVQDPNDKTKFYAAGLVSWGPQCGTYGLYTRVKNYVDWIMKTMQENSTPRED
T1 sequence (P09871 16-437 partner limits assumed): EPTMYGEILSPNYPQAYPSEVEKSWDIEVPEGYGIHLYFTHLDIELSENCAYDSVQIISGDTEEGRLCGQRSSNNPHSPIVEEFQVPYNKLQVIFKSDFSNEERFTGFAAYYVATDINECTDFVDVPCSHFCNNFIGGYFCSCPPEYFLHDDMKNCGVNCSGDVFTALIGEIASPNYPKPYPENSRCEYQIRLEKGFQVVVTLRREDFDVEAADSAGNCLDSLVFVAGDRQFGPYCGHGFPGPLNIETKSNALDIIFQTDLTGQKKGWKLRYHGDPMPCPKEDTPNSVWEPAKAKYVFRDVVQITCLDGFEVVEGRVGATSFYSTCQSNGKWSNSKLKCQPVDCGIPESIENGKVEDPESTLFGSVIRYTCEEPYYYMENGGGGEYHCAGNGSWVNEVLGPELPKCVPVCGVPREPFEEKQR
Description: biochemical. The following applies: ATEE hydrolysis; read-out: Anti-C1 activity, C1s ID50. The method, then:
The anti-Cl esterase (Clr, Cls) activity was determined according to the method of Okamura et al. [K. Okamura, M. Muramatsu and S. Fujii, Biochem. Biophys. […] The figures in Table 2 have the following meanings:
Cls: Molar concentration of the test compound which inhibits 50% of the ability of Cls to hydrolyse ATEE (acetyltyrosin ethyl ester).

Assay [1] has as its system Kallikrein. Description: Anti-kallikrein activity (hydrolysis of TAME). The class given is biochemical. The following applies: molar concentration inhibiting 50% of TAME hydrolysis; read-out: Kallikrein ID50. The protocol: (§1) The anti-trypsin, anti-plasmin, anti-kallikrein and anti-thrombin activities were determined according to the method of Muramatsu et al. [M. Muramatsu, T. Onishi, S. Makino, Y. Hayashi and S. Fujii, J. of Biochem., 58, 214 (1965)]. The data summarized in Table 1 are expressed in terms of molar concentration (ID50) of the test compound which inhibits 50% of the activity of each enzyme to hydrolyze TAME (tosylalginine methyl ester). The compound No. corresponds to the compound number shown in Examples.

A further assay deals with T2, Trypsin (Bos taurus, UniProt P00760).
T2 sequence (P00760 24-246): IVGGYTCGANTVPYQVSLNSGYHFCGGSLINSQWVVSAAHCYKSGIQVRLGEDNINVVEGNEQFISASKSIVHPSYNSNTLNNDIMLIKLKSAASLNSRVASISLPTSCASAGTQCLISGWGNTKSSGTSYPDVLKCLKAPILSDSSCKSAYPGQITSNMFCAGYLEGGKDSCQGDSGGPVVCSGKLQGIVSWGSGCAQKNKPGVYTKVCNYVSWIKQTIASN
Description: Anti-trypsin activity (hydrolysis of TAME). It counts as biochemical. The following applies: for IC50: molar concentration inhibiting 50% of TAME hydrolysis, read-out: Trypsin ID50; for inhibition at 10 µM: at 1×10^-5 M, read-out: Trypsin percentage inhibition. The method, then:
(§2) The anti-trypsin, anti-plasmin, anti-kallikrein and anti-thrombin activities were determined according to the method of Muramatsu et al. [M. Muramatsu, T. Onishi, S. Makino, Y. Hayashi and S. Fujii, J. of Biochem., 58, 214 (1965)]. […] The compound No. corresponds to the compound number shown in Examples.

The test system of assay [2] is complement mediated hemolysis. The assay can be described thus: Inhibition of complement mediated hemolysis. It counts as cell-based.
Description: The principle of this method is based on the fact that hemolysis is caused by the activation of complement, when the latter is added to a complex (immune complex) of erythrocytes and the antibody thereof. The degree of hemolysis varies in proportion to the amount of complement added. Therefore, when a known amount of complement admixed with a C1 esterase inhibitor is used, the hemolysis must be suppressed in proportion to the inhibitory activity.
The next assay addresses Plasmin (Homo sapiens, UniProt P00747). The assay can be described thus: Anti-plasmin activity (hydrolysis of TAME). The following applies: for IC50: molar concentration inhibiting 50% of TAME hydrolysis, read-out: Plasmin ID50. The class given is biochemical. The method, then: as §2
The target in another assay is Thrombin (Homo sapiens, UniProt P00734). The assay can be described thus: biochemical. The following applies: for IC50: molar concentration inhibiting 50% of TAME hydrolysis, read-out: Thrombin ID50; for inhibition at 10 µM: at 1×10^-5 M, read-out: Thrombin percentage inhibition. The protocol: as §1
The target of a further assay is T3, C1r (Homo sapiens, UniProt P00736).
T3 sequence (P00736 464-705 limits assumed): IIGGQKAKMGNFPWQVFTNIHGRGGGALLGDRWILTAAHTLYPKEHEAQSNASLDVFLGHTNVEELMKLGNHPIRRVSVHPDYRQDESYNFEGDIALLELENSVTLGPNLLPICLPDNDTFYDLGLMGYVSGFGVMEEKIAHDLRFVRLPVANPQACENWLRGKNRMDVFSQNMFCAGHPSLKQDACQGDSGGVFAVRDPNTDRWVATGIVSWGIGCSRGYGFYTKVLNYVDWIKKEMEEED
T3 sequence (P00736 18-463 partner limits assumed): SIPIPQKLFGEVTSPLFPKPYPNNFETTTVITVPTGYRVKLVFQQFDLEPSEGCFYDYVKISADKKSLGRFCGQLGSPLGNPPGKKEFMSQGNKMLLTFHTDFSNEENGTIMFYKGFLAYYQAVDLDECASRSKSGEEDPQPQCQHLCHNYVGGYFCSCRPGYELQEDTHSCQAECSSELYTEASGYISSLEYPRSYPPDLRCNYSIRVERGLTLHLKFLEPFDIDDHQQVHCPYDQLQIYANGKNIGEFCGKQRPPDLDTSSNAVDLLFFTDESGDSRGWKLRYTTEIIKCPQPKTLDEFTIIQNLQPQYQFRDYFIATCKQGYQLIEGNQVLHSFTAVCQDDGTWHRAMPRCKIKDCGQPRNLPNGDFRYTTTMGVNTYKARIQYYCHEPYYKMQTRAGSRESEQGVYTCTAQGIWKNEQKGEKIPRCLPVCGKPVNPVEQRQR
The assay can be described thus: Anti-C1 esterase (C1r) activity (hydrolysis of AAME). It counts as biochemical. To be noted: for IC50: AAME hydrolysis, read-out: Anti-C1 activity, C1r ID50. The protocol:
The anti-Cl esterase ([…]) activity was determined according to the method of Okamura et al. [K. Okamura, M. Muramatsu and S. Fujii, Biochem. Biophys.

Assay [3] relates to Kallikrein. Description: Anti-kallikrein activity (hydrolysis of TAME). To be noted: at 1×10^-5 M. The class given is biochemical.

Sequence of Plasmin (P00747 581-810 limits assumed, species assumed): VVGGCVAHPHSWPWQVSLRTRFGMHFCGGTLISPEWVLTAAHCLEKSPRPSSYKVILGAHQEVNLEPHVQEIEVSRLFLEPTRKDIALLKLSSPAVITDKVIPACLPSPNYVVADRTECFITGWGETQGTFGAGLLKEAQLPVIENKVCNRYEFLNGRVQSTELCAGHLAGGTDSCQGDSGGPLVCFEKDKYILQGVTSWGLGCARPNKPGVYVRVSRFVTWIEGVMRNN
Sequence of Plasmin (P00747 97-580 partner limits assumed, species assumed): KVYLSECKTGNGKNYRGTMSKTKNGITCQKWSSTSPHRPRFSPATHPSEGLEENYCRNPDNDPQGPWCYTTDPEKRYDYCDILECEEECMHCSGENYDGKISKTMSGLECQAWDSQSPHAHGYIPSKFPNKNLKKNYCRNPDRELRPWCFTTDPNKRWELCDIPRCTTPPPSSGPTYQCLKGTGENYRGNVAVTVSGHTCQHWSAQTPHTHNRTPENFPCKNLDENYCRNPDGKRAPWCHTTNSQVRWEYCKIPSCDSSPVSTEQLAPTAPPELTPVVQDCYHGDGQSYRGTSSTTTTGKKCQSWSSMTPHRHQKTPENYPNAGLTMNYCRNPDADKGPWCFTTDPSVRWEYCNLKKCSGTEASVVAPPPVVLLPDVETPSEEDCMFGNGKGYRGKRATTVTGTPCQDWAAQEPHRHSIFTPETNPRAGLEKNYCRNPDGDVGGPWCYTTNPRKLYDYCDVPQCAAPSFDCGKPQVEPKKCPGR

Take `Cc1ccc(C(=O)Oc2ccc3cc(C(=N)N)ccc3c2)cc1` [Compound 4]: the IC50 on C1s turned out to be 0.07 µM; with Kallikrein [1], 8 µM; at Trypsin, 1 µM; on Plasmin, 0.5 µM; at Thrombin, 20 µM; on C1r, 0.4 µM. Besides, the figures for the “Inhibition of complement mediated hemolysis (%)” value (shortened to “Inhibition … (%)”) in assay [2] (1 × 10^-5), in assay [2] (1 × 10^-6) and in assay [2] (1 × 10^-7) were 85%, 37% and 21%, respectively.
As a reminder, the inhibition is the change of the read-out against control, counted positive when it falls. Turning to `COc1ccc(CCC(=O)Oc2ccc3cc(C(=N)N)ccc3c2)cc1OC` [Compound 49], the IC50 on Trypsin was 2 µM; at Plasmin, 4 µM. Moreover, in the assay on Kallikrein [3], the Kallikrein percentage inhibition amounted to 29%. Also, at Thrombin, the inhibition at 10 µM is 17%.
On to `N=C(N)c1ccc2cc(OC(=O)c3ccc(C=O)cc3)ccc2c1` [Compound 31], for which the IC50 is 3 µM on C1s; > 10 µM with Kallikrein [1]; 4 µM at Trypsin; 0.4 µM on Plasmin; 0.3 µM on Thrombin; 2 µM on C1r. For the same compound, the “Inhibition … (%)” value is 98% in assay [2] (1 × 10^-4), 99% in assay [2] (1 × 10^-5), 92% in assay [2] (1 × 10^-6) and 76% in assay [2] (1 × 10^-7).
Consider `N=C(N)Nc1ccc(CCC(=O)Oc2ccc3cc(C(=N)N)ccc3c2)cc1` [Compound 52], for which the IC50 on C1s, with Kallikrein [1], at Plasmin, at Thrombin and at C1r was > 10 µM each time. The inhibition at 10 µM on Trypsin was 33%. Further, the “Inhibition … (%)” value is on record as 48% in assay [2] (1 × 10^-4), 15% in assay [2] (1 × 10^-5), 6% in assay [2] (1 × 10^-6) and 14% in assay [2] (1 × 10^-7).
On to `N=C(N)c1ccc2cc(OC(=O)C=Cc3cccc(C(F)(F)F)c3)ccc2c1` [Compound 66], for which the IC50 at C1s is 4 µM; with Kallikrein [1], > 10 µM; on Trypsin it was 6 µM; on Plasmin, 0.5 µM; at C1r, 6 µM. The “Inhibition … (%)” value in assay [2] (1 × 10^-4) is 60%; in assay [2] (1 × 10^-5), 6%; in assay [2] (1 × 10^-6) it was 1%; in assay [2] (1 × 10^-7) it was 1%. In addition, the inhibition at 10 µM at Thrombin is 21%.
Regarding `N=C(N)c1ccc2cc(OC(=O)C=Cc3ccccc3)ccc2c1` [Compound 57, 6-amidino-2-naphthyl cinnamate], the IC50 is 3 µM on C1s; 50 µM in the assay on Kallikrein [1]; 5 µM on Trypsin; 3 µM at Plasmin; 10 µM at Thrombin; 30 µM at C1r. In addition, the “Inhibition … (%)” value was found to be 80% in assay [2] (1 × 10^-5), 24% in assay [2] (1 × 10^-6) and 23% in assay [2] (1 × 10^-7).
As to `N=C(N)c1ccc2cc(OC(=O)c3ccc([N+](=O)[O-])cc3)ccc2c1` [Compound 18, 6-amidino-2-naphthyl 4-nitrobenzoate], the IC50 was 4 µM on C1s; > 10 µM in the assay with Kallikrein [1]; 10 µM on Trypsin; 3 µM at Plasmin; 2 µM on Thrombin; 4 µM on C1r. Moreover, the “Inhibition … (%)” value stood at 92% in assay [2] (1 × 10^-4), 97% in assay [2] (1 × 10^-5), 56% in assay [2] (1 × 10^-6) and 20% in assay [2] (1 × 10^-7).
As for `COc1ccccc1OCC(=O)Oc1ccc2cc(C(=N)N)ccc2c1` [Compound 68], the IC50 is > 10 µM at C1s; > 10 µM with Kallikrein [1]; > 10 µM on Trypsin; > 10 µM at Plasmin; 10 µM at Thrombin; > 10 µM on C1r. Also, the “Inhibition … (%)” value in assay [2] (1 × 10^-4) is 91%; in assay [2] (1 × 10^-5) it was 4%; in assay [2] (1 × 10^-6) it was 0%; in assay [2] (1 × 10^-7), 0%.
For `CC(=O)Oc1ccccc1C(=O)Oc1ccc2cc(C(=N)N)ccc2c1` [Compound 12], the IC50 is 3 µM on C1s, > 10 µM with Kallikrein [1], > 10 µM at Thrombin and 3 µM on C1r. The inhibition at 10 µM at Trypsin is 24%; at Plasmin (at 1×10^-5 M, read-out: Plasmin percentage inhibition), 40%. Besides, the “Inhibition … (%)” value in assay [2] (1 × 10^-4) stood at 87%; in assay [2] (1 × 10^-5), 55%; in assay [2] (1 × 10^-6) it was 27%; in assay [2] (1 × 10^-7), 3%.
In the case of `N=C(N)c1ccc2cc(OC(=O)C=Cc3ccc(N)cc3)ccc2c1` [Compound 63, 6-amidino-2-naphthyl 4-aminocinnamate], the IC50 is 0.4 µM on C1s; 4 µM in the assay with Kallikrein [1]; 2 µM at Trypsin; 8 µM on Plasmin; > 10 µM at Thrombin. Besides, the “Inhibition … (%)” value in assay [2] (1 × 10^-4) worked out at 73%; in assay [2] (1 × 10^-5) it was 37%; in assay [2] (1 × 10^-6) it was 26%; in assay [2] (1 × 10^-7) it was 42%. For the same compound, the inhibition at 10 µM at C1r (at 1×10^-5 M, read-out: Anti-C1 activity, C1r percent inhibition) came out at 15%.
On to `N=C(N)c1ccc2cc(OC(=O)c3ccccc3)ccc2c1` [Compound 1, 6-amidino-2-naphthyl benzoate], for which the IC50 came out at 0.1 µM on C1s; 30 µM in the assay on Kallikrein [1]; 3 µM on Trypsin; 2 µM on Plasmin; 5 µM at Thrombin; 0.4 µM on C1r. Further, the “Inhibition … (%)” value in assay [2] (1 × 10^-4) is reported as 100%; in assay [2] (1 × 10^-5), 100%; in assay [2] (1 × 10^-6), 91%; in assay [2] (1 × 10^-7), 27%.
